Experiments:
[1] = Clinic based application of topical Ivermectin for the treatment of inflammatory blepharitis; type: in vivo
Protocol: In another embodiment, the pharmaceutical composition is administered periodically. In an embodiment, the pharmaceutical composition is applied daily for 3 days and the treatment is repeated for 3 days again after 2 weeks. In most cases this is sufficient for a significant therapeutic effect. The treatment using this frequency can be repeated again if the condition recurs but this is necessary only in a relatively small number of cases. The intermittent dosage of the Ivermectin provides the benefit of a lower amount of Ivermectin use and thereby lowers the possibility of adverse effects.
In another embodiment, a subject with anterior and posterior blepharitis is identified and the existing symptoms and signs noted. The pharmaceutical composition is applied by the practitioner using for example, slit lamp magnification to accurately identify the areas on the eyelid margin where the pharmaceutical composition is to be applied. A topical anaesthetic drop is applied in the lower conjunctival sac of the eye 5 to 10 minutes prior. Temporary anaesthetization will attenuate the lacrimal reflex thereby minimizing the production of tear fluid during the application process.
The pharmaceutical composition is applied as a film precisely along the length of the lid margin with the applicator just covering the openings of the Meibomian glands but taking care as to not further extend the composition into the mucosal surface. The pharmaceutical composition is extended proximally to cover the lash roots and the skin area in between. The lid is held reflected away from the eyeball until the pharmaceutical composition sets and dries in place. The pharmaceutical composition takes the form of an adhesive film or coating on the lid margin. This procedure is repeated for all the 4 eyelid margins. The administration of the pharmaceutical composition results in enhanced meibum production.
A clinic based application of topical Ivermectin for the treatment of inflammatory blepharitis has been successful; both for cases where Demodex species were not isolated which constituted the majority of cases of Blepharitis treated, and the smaller number of cases where Demodex species were isolated. Most of these were cases with longstanding disease which had been unresponsive to a wide range of currently accepted treatment modalities. More than 95% had full relief of symptoms and a remarkable reduction in signs of inflammation of the lid margins. 87% of the cases required only 1 treatment cycle for marked improvement or complete remission of symptoms.

[2] = oral, cited from earlier work

Substance: mixture containing 5-O-demethyl-22,23-dihydroavermectin A1a and 5-O-demethyl-25-de(1-methylpropyl)-25-(1-methylethyl)-22,23 dihydroavermectin A1a [Ivermectin]
- cases that required only 1 treatment cycle for marked improvement or complete remission of symptoms ([1]; topical application to lid margins): 87%
- cases with full relief of symptoms and a remarkable reduction in signs of inflammation of the lid margins ([1]; topical application to lid margins, cases with and without Demodex isolated, mostly longstanding disease unresponsive to accepted treatments): More than 95%
- Meibomian gland orifices and secretions after treatment ([1]; topical application, a significant number of cases): re-opening of previously closed Meibomian gland orifices
- overall outcome of treatment of inflammatory blepharitis ([1]; topical application, cases with and without Demodex species isolated): successful
- dry eye symptoms after treatment ([1]; topical application, majority of the cases where dry eye symptoms were present): remarkable improvement
- adverse effect at high doses ([2]; high doses): paralysis
- safety profile [2]: good safety profile

Reference: US12161752B2, “Compositions and methods for the treatment of anterior blepharitis and posterior blepharitis” (priority 2019, dated 2024)
